# Patent US20220071932A1, “Compositions and Methods Against Stress-Induced Affective Disorders and Their Associated Symptoms” (The Trustees of Columbia University in the City of New York, priority 2019, published 2022)
# Legend:
# [1] = test system: 129S6/SvEv mice; assay: Contextual fear conditioning (CFC), 3-shock; freezing; type: in vivo; settings: for p, Freezing (%), CFC Re-exposure 2, (R,S)-ketamine vs. FENM / p, Freezing (%), CFC Re-exposure 2, Saline vs. drug: drug 5 min after re-exposure 1; for p, Freezing (%), CFC Re-exposure 2, (R,S)-ketamine vs. FENM: (R,S)-ketamine 30 mg/kg vs. FENM 20 mg/kg
# Procedure: A 3-shock CFC paradigm was administered as previously described (45, 46). CFC was conducted in chambers obtained from Med Associates (St. Albans, Vt.), with internal dimensions of approximately 20 cm wide×16 cm deep×20.5 cm high. The chambers had metal walls on each side, clear plastic front and back walls and ceilings, and stainless-steel bars on the floor. A house light (CM1820 bulb, 28v, 100 mA) mounted directly above the chamber provided illumination. Each chamber was located inside a larger, insulated, plastic cabinet that provided protection from outside light and noise. Each cabinet contained a ventilation fan that was operated during the sessions. A paper towel dabbed with lemon solution was placed underneath the chamber floor. Mice were held outside the experimental room in their home cages prior to testing and transported to the conditioning apparatus individually in standard mouse cages Chambers were cleaned with 70% EtOH between each set of mice. Mice were placed into the conditioning chamber and received shocks at 180 s, 240 s, and 300 s (2 s duration, 0.75 mA). Fifteen seconds after the last shock, mice were removed from the chamber. Overall, the training session lasted 317 s. […] All sessions were scored for freezing using FreezeFrame4.
# [2] = test system: NR2A subunit of the NMDAR; assay: Western blotting of hippocampus after fear memory recall; type: in vivo, mice; settings: one week prior to CFC, (R,S)-ketamine 30 mg/kg, FENM 20 mg/kg, vs saline
# Procedure: Samples from mouse hippocampus and prefrontal cortex were dissected, snap frozen, and stored at −80° C. Brain tissue was homogenized in RIPA buffer with protease inhibitor (Thermo Fisher Scientific, Waltham, Mass.; Roche, Basel, Switzerland) using a motorized pestle mixer (Argos Technologies, Vernon Hills, Ill.) and spun at 1000 g×14 minutes to remove cell debris. Protein concentration was determined using a Bradford protein assay (Bio-Rad, Hercules, Calif.). 4× Laemmli buffer and β-mercaptoethanol (Bio-Rad, Hercules, Calif.) was added to the samples, which were then boiled at 90° C. for five minutes. 50 μg of each sample was separated by SDS/PAGE, and proteins were transferred onto PVDF membrane (GE Healthcare Life Sciences, Marlborough, Mass.). Membranes were then blocked in 1×TBS with 0.1% Tween-20 and 5% BSA for 1 hr at RT. Incubation with primary antibodies was performed at 4° C. overnight (rabbit anti-β-tubulin, 1:10000, Abc am, Cambridge, UK, ab6046; rabbit anti-NR2A, 1:1000, Alomone Labs, Jerusalem, Israel, AGC-002; rabbit anti-NR2B, 1:600, Alomone Labs, Jerusalem, Israel, AGC-003; mouse anti-GluR1, 1:1000, Millipore Sigma, Burlington, Mass., MAB2263) in 1×TBS with 0.1% Tween-20 and 5% BSA. […]
# [3] = test system: NMDAR; settings: relative to (R,S)-ketamine; cited from earlier work
# [4] = (R,S)-ketamine (30 mg/kg) vs. FENM (20 mg/kg), FIG. 8F
# [5] = Saline vs. FENM (20 mg/kg), FIG. 8D
# [6] = Saline vs. FENM (20 mg/kg), FIG. 8F
# [7] = dose (20), drug 5 minutes after stress, FIG. 2C
structure (smiles),measurement,setting,value
"NC12CC3CC(C1)CC(CCF)(C3)C2 [FENM, 1-amino-3-fluoroethyl-adamantane]","CFC Re-exposure 2, Freezing Min 1 (%), p (Fisher's LSD)",[1]; [4],0.1684
same,"CFC Re-exposure 2, Freezing Min 2 (%), p (Fisher's LSD)",[1]; [4],<0.0001
same,"CFC Re-exposure 2, Freezing Min 3 (%), p (Fisher's LSD)",[1]; [4],<0.0001
same,"CFC Re-exposure 2, Freezing Min 4 (%), p (Fisher's LSD)",[1]; [4],<0.0001
same,"CFC Re-exposure 2, Freezing Min 5 (%), p (Fisher's LSD)",[1]; [4],<0.0001
same,"CFC Re-exposure 1, Freezing (%), p (Fisher's LSD)","[1]; (R,S)-ketamine (30 mg/kg) vs. FENM (20 mg/kg), after ANOVA, FIG. 8E",<0.0001
same,"CFC Re-exposure 2, Freezing (%), p (Fisher's LSD)","[1]; (R,S)-ketamine (30 mg/kg) vs. FENM (20 mg/kg), after ANOVA, FIG. 8G",<0.0001
same,"CFC Re-exposure 1, Freezing (%), p (Fisher's LSD)","[1]; (R,S)-ketamine (30 mg/kg) vs. FENM (20 mg/kg), after RMANOVA, FIG. 8D",<0.0001
same,"CFC Re-exposure 2, Freezing (%), p (Fisher's LSD)","[1]; (R,S)-ketamine (30 mg/kg) vs. FENM (20 mg/kg), after RMANOVA, FIG. 8F",<0.0001
same,"CFC Training, Freezing, p (Fisher's LSD)","[1]; (R,S)-ketamine (30 mg/kg) vs. FENM (20 mg/kg), after RMANOVA, FIG. 8 cohort",0.0029
same,Behavior: Fear,"[1]; Extinction (5 min after re-exposure 1), dose 20 mg/kg",↓
same,"p, Freezing (%), CFC Re-exposure 2, (R,S)-ketamine vs. FENM","[1]; Fisher's LSD after ANOVA, FIG. 4G",0.0248
same,"p, Freezing (%), CFC Re-exposure 2, Saline vs. drug","[1]; Fisher's LSD after ANOVA, FENM 20 mg/kg, (R,S)-ketamine 30 mg/kg, FIG. 4G",0.0281
same,"p, Freezing (%), CFC Re-exposure 2, (R,S)-ketamine vs. FENM","[1]; Fisher's LSD after RMANOVA, FIG. 4F",0.0248
same,"p, Freezing (%), CFC Re-exposure 2, Saline vs. drug","[1]; Fisher's LSD after RMANOVA, FENM 20 mg/kg, ketamine 30 mg/kg, FIG. 4F",0.0281
same,"p, Freezing (%), CFC Training, Saline vs. drug","[1]; Fisher's LSD after RMANOVA, drug 5 min before CFC, (R,S)-ketamine 30 mg/kg, FENM dose lies beyond the rows shown, FIG. 8B",0.9251
same,Behavior: Fear,"[1]; Prophylactic (5 min before stress), dose 20 mg/kg",↑
same,Behavior: Fear,"[1]; Prophylactic (7 days before stress), dose 20 mg/kg",↓
same,Behavior: Fear,"[1]; Prophylactic (7 days before stress), dose 30 mg/kg",↓
same,"CFC Training, Average Freezing, p (Fisher's LSD)","[1]; Saline vs. FENM (20 mg/kg), FIG. 8C",0.9251
same,"CFC Re-exposure 1, Freezing Min 1 (%), p (Fisher's LSD)",[1]; [5],0.0008
same,"CFC Re-exposure 1, Freezing Min 2 (%), p (Fisher's LSD)",[1]; [5],0.0075
same,"CFC Re-exposure 1, Freezing Min 3 (%), p (Fisher's LSD)",[1]; [5],0.1384
same,"CFC Re-exposure 1, Freezing Min 4 (%), p (Fisher's LSD)",[1]; [5],0.7601
same,"CFC Re-exposure 1, Freezing Min 5 (%), p (Fisher's LSD)",[1]; [5],0.4751
same,"CFC Re-exposure 2, Freezing Min 1 (%), p (Fisher's LSD)",[1]; [6],0.5432
same,"CFC Re-exposure 2, Freezing Min 2 (%), p (Fisher's LSD)",[1]; [6],0.0173
same,"CFC Re-exposure 2, Freezing Min 3 (%), p (Fisher's LSD)",[1]; [6],0.0053
same,"CFC Re-exposure 2, Freezing Min 4 (%), p (Fisher's LSD)",[1]; [6],0.3068
same,"CFC Re-exposure 2, Freezing Min 5 (%), p (Fisher's LSD)",[1]; [6],0.3729
same,"CFC Re-exposure 1, Freezing (%), p (Fisher's LSD)","[1]; Saline vs. FENM (20 mg/kg), after ANOVA, FIG. 8E",0.0665
same,"CFC Re-exposure 2, Freezing (%), p (Fisher's LSD)","[1]; Saline vs. FENM (20 mg/kg), after ANOVA, FIG. 8G",0.0173
same,"CFC Re-exposure 1, Freezing (%), p (Fisher's LSD)","[1]; Saline vs. FENM (20 mg/kg), after RMANOVA, FIG. 8D",0.0665
same,"CFC Re-exposure 2, Freezing (%), p (Fisher's LSD)","[1]; Saline vs. FENM (20 mg/kg), after RMANOVA, FIG. 8F",0.0173
same,"p, Fisher's PLSD Saline vs. drug, CFC Re-exposure Freezing Min 1 (%)",[1]; [7],0.1072
same,"p, Fisher's PLSD Saline vs. drug, CFC Re-exposure Freezing Min 2 (%)",[1]; [7],0.0080
same,"p, Fisher's PLSD Saline vs. drug, CFC Re-exposure Freezing Min 3 (%)",[1]; [7],0.1619
same,"p, Fisher's PLSD Saline vs. drug, CFC Re-exposure Freezing Min 4 (%)",[1]; [7],0.5390
same,"p, Fisher's PLSD Saline vs. drug, CFC Re-exposure Freezing Min 5 (%)",[1]; [7],0.8801
same,"p, Fisher's PLSD Saline vs. drug, CFC Re-exposure Freezing (%)","[1]; dose (20), drug 5 minutes after stress, after RMANOVA, FIG. 2C",0.1188
same,behavior during CFC training,"[1]; one week prior to 3-shock CFC (c-fos / Western blot cohort), (R,S)-ketamine 30 mg/kg, FENM 20 mg/kg, vs saline",did not alter behavior
same,freezing upon re-exposure,"[1]; one week prior to 3-shock CFC, re-exposed five days later, (R,S)-ketamine 30 mg/kg, FENM 20 mg/kg, vs saline",significantly reduced freezing
same,NR2A expression in the hippocampus,[2],comparable
same,affinity as NMDAR antagonist,[3],"lower affinity than (R,S)-ketamine"
